Test results reported in patent US20220349015A1, “DIAGNOSIS AND TREATMENT OF THYROID CANCER” (Beth Israel Deaconess Medical Center, Inc., priority 2019, published 2022).

Assays:
[1] = system: TPO and TTF-1 mRNA in BRAF^V600E PTC-derived cells; test: qPCR of iodide metabolism genes (TPO, TTF-1 mRNA) in PTC-derived cells
[2] = system: human invasive heterozygous BRAF^WT/V600E PTC-derived cell line; test: Invasion of human invasive BRAF^WT/V600E PTC-derived cell line; format: cell-based
[3] = system: BRAF^WT/V600E PTC-derived cell line xenograft tumors; test: Xenograft mouse model of human invasive heterozygous BRAF^WT/V600E PTC-derived cell line
[4] = system: BRAF^V600E PTC-derived cells; test: 123-Iodide uptake in vitro; conditions: Xloc13 lincRNA; synergizes with vemurafenib
[5] = system: Xloc13 lincRNA expression in BRAF^V600E PTC-derived cells; test: qPCR of Xloc13 expression in BRAF^V600E PTC-derived cells; format: cell-based, human; conditions: metastatic or non-metastatic PTC-derived cells; vs. vehicle
[6] = Xloc13+ BRAF^WT/V600E PTC-derived cells

In the case of “Xloc13 lincRNA: thyroid-specific long intergenic non-coding RNA (2.257 kb, SEQ ID NO: 1), over-expressed from a vector in PTC-derived cells”, the “TPO mRNA expression levels” value ([1]; Xloc13 lincRNA over-expression in PTC-derived cell lines) was “up-regulates TPO mRNA expression levels”, the invasion ([2]; Xloc13 lincRNA overexpression alone) was “inhibited invasion” and the invasion ([2]; Xloc13 lincRNA overexpression plus vemurafenib) was “inhibits invasion”. The EZH2 protein levels [3, 6] was “transcriptionally down-regulated EZH2 protein levels”, the “H3K27me3 (EZH2 effector)” value [3, 6] was “reducing its effector H3K27me3” and the decrease in growth ([3]; Xloc13+ cells under vemurafenib therapy vs. backbone vector control) was greater than 3 fold. The “123-Iodide uptake in xenograft tumors (nano-SPECT imaging)” value ([3]; Xloc13+ tumors of vemurafenib-treated mice vs. vehicle-treated backbone vector controls) was “significantly crucial for the recovery” and the “123-iodide uptake/organification in vitro” value [4] was “crucial for the rescue”.
With `CCCS(=O)(=O)Nc1ccc(F)c(C(=O)c2c[nH]c3ncc(-c4ccc(Cl)cc4)cc23)c1F` [vemurafenib, reference compound] the “TPO and TTF-1 mRNA levels rise” value ([1]; cells engineered to over-express Xloc13 (Xloc13+) during treatment with vemurafenib) was roughly 3.5 fold-changes and the “rescue of Xloc13 expression (qPCR)” value [5] was 4-6 fold-changes.
